# According to paper PMC10663516 (Scientific Reports, 2023):
# Experiments:
# primary CLL blasts = experiment: Growth inhibition of primary CLL blasts (Mosaic Spot Assay); format: cell-based; details: Homo sapiens, 96 h, 4 days
# Description: A cytotoxic dose of cisplatin acted as a positive control, with no drug treatment as a negative control.
# Daudi cells = experiment: Rituximab-induced ADCC, NK cell-driven lysis (Calcein-AM release); format: cell-based, human; details: 3 µg/mL rituximab, primary NK cells, 4 h; TL-895 0.1–10 µM, ibrutinib and acalabrutinib 0.3–30 µM
# Description: ADCC analysis was based on quantitation of Calcein-AM release by […] detection on a FLUOstar® Omega (BMG LABTECH).
# DLBCL PDX models = experiment: 21 DLBCL PDX models, overall tumor response; format: in vivo, mouse
# Protocol: (§1) The research use of patient material in PDX models at Crown Bioscience, XenoSTART and EPO-GmbH was approved by the local Institutional Ethical Review Boards and the patients provided written informed consent. Molecular analysis was performed on samples from each model using the EdgeSeq DLBCL Cell of Origin Assay (HTG Molecular Diagnostics, Tucson, AZ, USA) to confirm ABC-GCB DLBCL subtype.
# Stock mice inoculated with human DLBCL cancer tissues were euthanized by progressive hypoxemia with CO2 and tumors were harvested. […]
# (§2) When the average tumor volume was within a pre-determined range (100–300 mm^3), mice were assigned to treatment groups to balance the mean starting tumor volumes (n = 5 for all models except LY13005, which was n = 3). […] Tumor volumes were recorded 2–3 times per week. Mean %∆T/∆C was calculated at the end of treatment as described above for MCL models.
# Tumor volume was used as the measure of efficacy for statistical analyses of in vivo xenograft studies. Tumor volume data from individual studies were log-transformed and statistically analyzed using repeated measures analysis of covariance (RM-ANCOVA) to determine significant treatment effects, followed by post hoc Tukey’s test for multiple pairwise comparisons (all α = 0.05) using R software. Day 0 data were used only as covariates in the analyses because tumor measurements on that day were recorded before the first treatments were administered. […]
# [1] = cited from earlier work
# ST949B/ABC = experiment: DLBCL PDX model; format: in vivo, mouse; details: 9 days, QD PO, TL-895 and ibrutinib 25 mg/kg, acalabrutinib 30 mg/kg
# Protocol: (§3) All three compounds were formulated in a solution of 20% kleptose (hydroxypropyl β-cyclodextrin) in 50 mM citrate and administered QD PO during the treatment periods given for each model.
# For mean values > 0: %ΔT/ΔC=endtumorvolumetreatment-starttumorvolumetreatment/endtumorvolumecontrol-starttumorvolumecontrol×100
# For mean values ≤ 0 (i.e. regression): %ΔT/ΔC=endtumorvolumetreatment-starttumorvolumetreatment/starttumorvolumecontrol×100
# as §1
# Stock mice inoculated with human DLBCL cancer tissues were euthanized by progressive hypoxemia with CO2 and tumors were harvested. Tumor fragments were used at three different contract research organizations for xenotransplantation into different mouse strains for the following models: (1) 6-week-old female nude (NMRI:nu/nu) or CB17-SCID mice (Javier Labs, France): Ly12638, Ly11212, and Ly13005 (Experimental Pharmacology and Oncology Berlin-Buch GmbH [EPO-GmbH], Germany); (2) 6–8-week-old female BALB/c nude or NOD SCID mice (Beijing HFK Bioscience Co., Ltd. Beijing, China): LY0257, LY2214, LY3604, LY2298, LY2264, LY2318, and LY2345 (Crown Bioscience Inc, Taicang, China); and (3) 6–12-week-old female CB-17 SCID mice (CB17/Icr-Prkdc^scid/IcrIcoCrl Charles River Laboratories, Wilmington, MA, USA): ST118B, ST949B, ST359, ST949, ST2761B, ST2963, ST1361, ST2078, ST1735B, ST2902, and ST3497 (XenoSTART, San Antonio, TX, USA).
# as §2
# (§4) Tumor volume was used as the measure of efficacy for statistical analyses of in vivo xenograft studies. Tumor volume data from individual studies were log-transformed and statistically analyzed using repeated measures analysis of covariance (RM-ANCOVA) to determine significant treatment effects, followed by post hoc Tukey’s test for multiple pairwise comparisons (all α = 0.05) using R software. Day 0 data were used only as covariates in the analyses because tumor measurements on that day were recorded before the first treatments were administered.
# Jeko-1 = experiment: Cell line-derived xenograft model of MCL; format: in vivo, mouse; details: Jeko-1 xenograft, nude mice, 25 mg/kg QD PO, 20 days
# Protocol: All three compounds were formulated in a solution of 20% kleptose (hydroxypropyl β-cyclodextrin) in 50 mM citrate and administered QD PO during the treatment periods given for each model. […] Studies in the Jeko-1 mouse MCL model were performed at EMD Serono Research and Development Institute, Billerica, MA, USA. Six-to-eight-week old female nude mice (Crl:NU-Foxn1nu; Charles River Laboratories, Wilmington) were inoculated with Jeko-1 cells (obtained from ATCC) by s.c. injection (10 × 10^6 cells in 0.2 mL phosphate buffered saline with Matrigel). […] Tumor volumes were recorded twice weekly. Mean %∆T/∆C was calculated at the end of treatment as outlined above. Tumor volume was used as the measure of efficacy for statistical analyses of in vivo xenograft studies. Tumor volume data from individual studies were log-transformed and statistically analyzed using repeated measures analysis of covariance (RM-ANCOVA) to determine significant treatment effects, followed by post hoc Tukey’s test for multiple pairwise comparisons (all α = 0.05) using R software. Day 0 data were used only as covariates in the analyses because tumor measurements on that day were recorded before the first treatments were administered.
# Maver-1 = experiment: Cell line-derived xenograft model of MCL; format: in vivo, mouse; details: Maver-1 xenograft, SCID mice, 25 mg/kg QD PO, 14 days
# Protocol: as §3
# (§5) Maver-1, Granta519, and Mino mouse MCL studies were performed at Shanghai ChemPartner Co., Ltd, Shanghai, China. Five-to-six-week old female severe combined immune deficiency (SCID) mice (Vital River Lab Animal Technology Co., Ltd, Beijing, China) were inoculated with Maver-1, Granta519, or Mino cells (all obtained from ATCC) by subcutaneous (s.c.) injection (0.2 mL containing 5 × 10^7 cells/mL in a 1:1 suspension of medium:Matrigel).
# (§6) […]. Tumor volumes were recorded three times per week. Tumor growth inhibition was expressed as the mean percentage treatment (T)/control (C) ratio [%∆T/∆C] and was calculated at the end of treatment.
# as §4
# Granta519 = experiment: Cell line-derived xenograft model of MCL; format: in vivo, mouse; details: SCID mice, 25 mg/kg QD PO, 14 days
# Protocol: as §3, §5, §6, §4
# Mino = experiment: Cell line-derived xenograft model of MCL; details: SCID mice, 25 mg/kg QD PO, 27 days
# BTK = BTK (Homo sapiens, UniProt Q06187); experiment: BTK phosphorylation in Ramos cells after anti-IgM stimulation (ProteinSimple Wes); format: cell-based; design: endogenous in cells; host or cells: Ramos Burkitt's lymphoma cells (ATCC CRL-1596)
# BTK, sequence (Q06187 whole entry): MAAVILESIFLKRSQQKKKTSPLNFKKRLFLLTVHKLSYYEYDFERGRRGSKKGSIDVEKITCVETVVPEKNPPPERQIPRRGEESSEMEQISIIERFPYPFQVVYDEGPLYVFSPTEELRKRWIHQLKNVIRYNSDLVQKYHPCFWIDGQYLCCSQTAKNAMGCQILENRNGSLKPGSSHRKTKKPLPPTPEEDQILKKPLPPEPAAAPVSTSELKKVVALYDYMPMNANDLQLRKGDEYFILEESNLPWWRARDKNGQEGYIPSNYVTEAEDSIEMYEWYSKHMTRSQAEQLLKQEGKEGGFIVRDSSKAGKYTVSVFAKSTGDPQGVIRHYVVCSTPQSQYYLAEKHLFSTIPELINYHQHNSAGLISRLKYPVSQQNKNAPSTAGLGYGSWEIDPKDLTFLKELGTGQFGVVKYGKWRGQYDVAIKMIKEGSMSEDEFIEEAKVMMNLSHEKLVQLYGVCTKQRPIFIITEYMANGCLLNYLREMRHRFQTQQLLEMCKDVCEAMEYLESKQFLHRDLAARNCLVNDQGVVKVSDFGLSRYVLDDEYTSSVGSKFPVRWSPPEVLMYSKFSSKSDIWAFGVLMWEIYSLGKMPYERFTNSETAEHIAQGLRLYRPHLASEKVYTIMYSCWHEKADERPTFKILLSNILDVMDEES
Structure (SMILES),inhibition at 0.008 µM (primary CLL blasts) [%],inhibition at 0.04 µM (primary CLL blasts) [%],inhibition at 0.2 µM (primary CLL blasts) [%],inhibition at 1 µM (primary CLL blasts) [%],inhibition at 5 µM (primary CLL blasts) [%],inhibition at 25 µM (primary CLL blasts) [%],IC50 (primary CLL blasts) [nM],Inhibition of the ADCC mechanism of rituximab (Daudi cells),Tumor response rate (models with P < 0.05 versus vehicle) (DLBCL PDX models) [%],"Exposure ([1]; MCL, acalabrutinib oral 100 mg BID) [ng·h/mL]",%ΔT/ΔC (ST949B/ABC) [%],Tumor growth vs vehicle (Jeko-1),Tumor growth vs vehicle (Maver-1),Tumor growth vs vehicle (Granta519),Tumor growth vs vehicle (Mino),"Area under the curve (AUC) ([1]; patients with MCL, ibrutinib 560 mg QD) [ng·h/mL]","IC50 (BTK; 30 min pre-treatment, anti-IgM stimulation, read-out: IC50, BTK auto-phosphorylation at Y223) [nM]",Phosphorylation of Y551 on the activation loop (BTK; up to highest tested concentration 1 µM)
CC#CC(=O)N1CCC[C@H]1c1nc(-c2ccc(C(=O)Nc3ccccn3)cc2)c2c(N)nccn12 [Acalabrutinib],34,40,47,56,64,80,~200,"neither TL-895 (0.1–10 µM) nor acalabrutinib (0.3–30 µM) inhibited the ADCC mechanism of rituximab at the lower, more clinically relevant, concentrations",24,1111,103,–,–,–,–,–,–,–
C=CC(=O)N1CCC[C@@H](n2nc(-c3ccc(Oc4ccccc4)cc3)c3c(N)ncnc32)C1 [Ibrutinib],–,–,–,–,–,–,–,ADCC was inhibited by ibrutinib (0.3–30 µM) in a concentration-dependent manner,10,–,–,Neither TL-895 nor ibrutinib had any significant effects on tumor growth,Neither TL-895 nor ibrutinib had any significant effects on tumor growth,Neither TL-895 nor ibrutinib had any significant effects on tumor growth,Significant treatment effects were observed for TL-895 and ibrutinib versus vehicle,956,–,–
C=CC(=O)N1CCC(F)(CNc2ncnc(N)c2-c2ccc(Oc3ccccc3)cc2)CC1 [TL-895],43,50,53,61,72,90,~200,"neither TL-895 (0.1–10 µM) nor acalabrutinib (0.3–30 µM) inhibited the ADCC mechanism of rituximab at the lower, more clinically relevant, concentrations",24,–,39,Neither TL-895 nor ibrutinib had any significant effects on tumor growth,Neither TL-895 nor ibrutinib had any significant effects on tumor growth,Neither TL-895 nor ibrutinib had any significant effects on tumor growth,significantly inhibited tumor growth,–,1 to 10,not inhibited
